Laboratory results published in US20230141101A1, “PDE4 INHIBITOR COMPOUND AND MEDICAL USE THEREOF” (Suzhou Longbotai Pharmaceuticals Co., Ltd., priority 2020, published 2023).

Assays:
Type in all cases: biochemical
PDE4A1A = target: T1, PDE4A1A (Homo sapiens, UniProt P27815); experiment: PDE4 inhibitory activity assay (FAM-cAMP enzymatic reaction), PDE4A1A
T1 construct: purchased BPS 60040
Outline: (§1)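 Inhibition rates from a fluorescence read gave IC50 values. Each enzyme (PDE4A1A, PDE4B1, PDE4D2) sat with compound for 15 min at room temperature; FAM-cAMP then started a 30 min room-temperature reaction, ended with stop solution and left 60 min more.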

PDE4B1 = target: T2, PDE4B1 (Homo sapiens, UniProt Q07343); experiment: PDE4 inhibitory activity assay (FAM-cAMP enzymatic reaction), PDE4B1
T2 construct: purchased BPS 60041
Outline: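 Each isoform is incubated with test compound for 15 min at room temperature before FAM-cAMP substrate starts a 30-min reaction.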

PDE4D2 = PDE4D2 (Homo sapiens, UniProt Q08499); experiment: PDE4 inhibitory activity assay (FAM-cAMP enzymatic reaction), PDE4D2
Outline: as §1

[1] = compared with Apremilast and Example 11 of WO2018036470 (WX011)

Chain of PDE4D2 (Q08499 303-809): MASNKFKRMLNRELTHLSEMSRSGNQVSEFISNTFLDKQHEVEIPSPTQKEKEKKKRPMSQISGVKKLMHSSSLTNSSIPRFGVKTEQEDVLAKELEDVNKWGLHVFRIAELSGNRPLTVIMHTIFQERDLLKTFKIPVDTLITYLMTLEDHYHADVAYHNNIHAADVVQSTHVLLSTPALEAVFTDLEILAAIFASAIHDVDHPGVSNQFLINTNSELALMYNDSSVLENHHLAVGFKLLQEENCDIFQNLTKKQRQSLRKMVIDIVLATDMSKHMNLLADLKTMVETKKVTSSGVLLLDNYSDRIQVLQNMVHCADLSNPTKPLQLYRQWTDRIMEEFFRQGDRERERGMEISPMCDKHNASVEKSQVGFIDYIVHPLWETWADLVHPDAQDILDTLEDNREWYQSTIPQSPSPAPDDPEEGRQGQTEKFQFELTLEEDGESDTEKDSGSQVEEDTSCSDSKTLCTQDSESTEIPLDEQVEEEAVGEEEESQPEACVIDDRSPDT
T2 sequence (Q07343 whole entry): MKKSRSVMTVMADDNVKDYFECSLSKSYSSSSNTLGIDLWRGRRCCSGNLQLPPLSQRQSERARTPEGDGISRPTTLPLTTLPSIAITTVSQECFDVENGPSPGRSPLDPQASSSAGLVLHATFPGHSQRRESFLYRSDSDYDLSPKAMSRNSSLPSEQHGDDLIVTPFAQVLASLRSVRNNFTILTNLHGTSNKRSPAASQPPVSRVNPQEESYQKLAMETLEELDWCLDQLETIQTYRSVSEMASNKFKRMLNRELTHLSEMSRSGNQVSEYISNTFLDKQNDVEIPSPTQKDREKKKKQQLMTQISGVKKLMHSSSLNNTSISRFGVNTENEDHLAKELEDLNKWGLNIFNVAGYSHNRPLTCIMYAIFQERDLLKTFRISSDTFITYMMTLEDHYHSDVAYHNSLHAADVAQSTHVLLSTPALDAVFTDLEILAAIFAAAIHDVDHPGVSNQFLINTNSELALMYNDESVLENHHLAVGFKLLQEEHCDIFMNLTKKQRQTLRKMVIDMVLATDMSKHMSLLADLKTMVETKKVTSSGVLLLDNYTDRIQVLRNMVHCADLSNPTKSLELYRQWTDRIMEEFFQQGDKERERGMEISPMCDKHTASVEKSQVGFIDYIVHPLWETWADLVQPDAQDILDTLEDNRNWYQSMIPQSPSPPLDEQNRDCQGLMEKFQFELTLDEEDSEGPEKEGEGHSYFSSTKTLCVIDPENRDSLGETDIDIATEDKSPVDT
T1 sequence (P27815 1-647 isoform P27815-4): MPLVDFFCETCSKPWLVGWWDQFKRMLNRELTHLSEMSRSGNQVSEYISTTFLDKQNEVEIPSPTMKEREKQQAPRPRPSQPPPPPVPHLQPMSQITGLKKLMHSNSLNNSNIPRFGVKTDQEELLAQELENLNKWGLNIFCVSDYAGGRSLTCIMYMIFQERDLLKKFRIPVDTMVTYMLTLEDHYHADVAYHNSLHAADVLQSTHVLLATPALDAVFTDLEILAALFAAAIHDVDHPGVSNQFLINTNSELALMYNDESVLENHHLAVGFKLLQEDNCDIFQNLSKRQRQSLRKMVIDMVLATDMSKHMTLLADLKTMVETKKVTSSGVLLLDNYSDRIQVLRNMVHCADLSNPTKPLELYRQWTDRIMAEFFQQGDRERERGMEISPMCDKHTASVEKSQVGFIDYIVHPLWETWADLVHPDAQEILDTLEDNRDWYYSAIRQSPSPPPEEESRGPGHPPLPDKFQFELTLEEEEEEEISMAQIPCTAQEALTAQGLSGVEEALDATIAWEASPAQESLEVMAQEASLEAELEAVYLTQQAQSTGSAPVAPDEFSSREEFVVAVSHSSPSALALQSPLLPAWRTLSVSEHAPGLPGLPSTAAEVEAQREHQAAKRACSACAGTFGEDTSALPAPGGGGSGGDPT

Row | PDE4 A1 inhibitory effect at 20 nM (PDE4A1A) | PDE4 B1 inhibitory effect at 20 nM (PDE4B1) | PDE4 D2 inhibitory effect at 20 nM (PDE4D2) | IC50 (PDE4D2; read-out: PDE4 D2 inhibitory activity (IC50 value)) [nM] | SMILES | inhibitory activity against PDE4A1A compared with Apremilast and WX011 (PDE4A1A; [1]) | inhibitory activity against PDE4B1 compared with Apremilast and WX011 (PDE4B1; [1]) | inhibitory activity against PDE4D2 compared with Apremilast and WX011 (PDE4D2; [1])
1 | + | + | + |  | CCOc1nc([C@@H](CS(C)(=O)=O)N2C(=O)c3csc(NC(=O)CN4CCCC4)c3C2=O)ccc1OC [Ex. 231, (S)—N-(5-(1-(6-ethoxy-5-methoxypyridin-2-yl)-2-(methylsulfonyl)ethyl)-4,6-dioxo-5,6-dihydro-4H-thieno[3,4-c]pyrrol-1-yl)-2-(pyrrolidin-1-yl)acetamide] |  |  | 
2 | + | + | + |  | CCOc1nc([C@@H](CS(C)(=O)=O)n2c(=O)n(C)c3cc(-c4cccc(F)c4F)cnc32)ccc1OC [Ex. 91, (S)-6-(2,3-difluorophenyl)-3-(1-(6-ethoxy-5-methoxypyridin-2-yl)-2-(methylsulfonyl)ethyl)-1-methyl-1H-imidazo[45-b]pyridin-2(3H)-one] |  |  | 
3 | + | + | + |  | CCOc1nc([C@@H](CS(C)(=O)=O)n2c(=O)[nH]c3c(C)c(-c4cccc(OC)c4F)cnc32)ccc1OC [Ex. 42, (S)-6-(2-fluoro-3-methoxyphenyl)-3-(1-(6-ethoxy-5-methoxypyridin-2-yl)-2-(methylsulfonyl)ethyl)-7-methyl-1H-imidazo[4,5-b]pyridin-2(3H)-one] |  |  | 
4 | + | + | + |  | CCOc1nc([C@@H](CS(C)(=O)=O)n2c(=O)n(C)c3cc(-c4ccccc4CC)cnc32)ccc1OC [Ex. 82, (S)-3-(1-(6-ethoxy-5-methoxypyridin-2-yl)-2-(methylsulfonyl)ethyl)-6-(2-ethylphenyl)-1-methyl-1H-imidazo[4,5-b]pyridin-2(3H)-one] |  |  | 
5 | + | + | + |  | CCOc1nc([C@@H](CS(C)(=O)=O)n2c(=O)[nH]c3cc(-c4ccc(F)cc4)cnc32)ccc1OC [Ex. 78, (S)-3-(1-(6-ethoxy-5-methoxypyridin-2-yl)-2-(methylsulfonyl)ethyl)-6-(4-fluorophenyl)-1H-imidazo[4,5-b]pyridin-2(3H)-one] |  |  | 
6 | + | + | + |  | CCOc1nc([C@@H](CS(C)(=O)=O)n2c(=O)n(C)c3cc(-c4ccc(F)cc4F)ccc32)ccc1OC [Ex. 157, (S)-5-(2,4-difluorophenyl)-1-(1-(6-ethoxy-5-methoxypyridin-2-yl)-2-(methylsulfonyl)ethyl)-3-methyl-1H-benzo[d]imidazol-2(3H)-one] |  |  | 
7 | + | + | + |  | CCOc1nc([C@@H](CS(C)(=O)=O)n2c(=O)[nH]c3c(C)c(-c4c(F)cccc4OC)cnc32)ccc1OC [Ex. 46, (S)-6-(6-fluoro-2-methoxyphenyl)-3-(1-(6-ethoxy-5-methoxypyridin-2-yl)-2-(methylsulfonyl)ethyl)-7-methyl-1H-imidazo[4,5-b]pyridin-2(3H)-one] |  |  | 
8 | + | + | + |  | CCOc1nc([C@@H](CS(C)(=O)=O)n2c(=O)n(CC(F)F)c3c(C)c(-c4ccccc4F)cnc32)ccc1OC [Ex. 56, (S)-1-(2,2-difluoroethyl)-3-(1-(6-ethoxy-5-methoxypyridin-2-yl)-2-(methylsulfonyl)ethyl)-6-(2-fluorophenyl)-7-methyl-1H-imidazo[4,5-b]pyridin-2(3H)-one] |  |  | 
9 | − | − | − |  | CCOc1nc([C@H](CS(C)(=O)=O)n2c(=O)[nH]c3c(C)c(-c4ccccc4)cnc32)ccc1OC(F)F [Ex. 62, (R)-3-(1-(5-(difluoromethoxy)-6-ethoxypyridin-2-yl)-2-(methylsulfonyl)ethyl)-7-methyl-6-phenyl-1H-imidazo[4,5-b]pyridin-2(3H)-one] |  |  | 
10 | + | + | + |  | CCOc1nc([C@@H](CS(C)(=O)=O)n2c(=O)[nH]c3cc(-c4ccccc4C4CC4)ccc32)ccc1OC [Ex. 148, (S)-5-(2-cyclopropylphenyl)-1-(1-(6-ethoxy-5-methoxypyridin-2-yl)-2-(methylsulfonyl)ethyl)-1H-benzo[d]imidazol-2(3H)-one] |  |  | 
11 | + | + | + |  | CCOc1nc(C(CS(C)(=O)=O)N2C(=O)c3csc([N+](=O)[O-])c3C2=O)ccc1OC (stereo not shown) [Ex. 221, 5-(1-(6-ethoxy-5-methoxypyridin-2-yl)-2-(methylsulfonyl)ethyl)-1-nitro-4H-thieno[3,4-c]pyrrol-4,6(5H)-dione] |  |  | 
12 | + | + | + |  | CCOc1nc([C@H](CS(C)(=O)=O)n2c(=O)[nH]c3cc(-c4ccccc4C)ccc32)ccc1OC [Ex. 141, (R)-1-(1-(6-ethoxy-5-methoxypyridin-2-yl)-2-(methylsulfonyl)ethyl)-5-(o-methylphenyl)-1H-benzo[d]imidazol-2(3H)-one] |  |  | 
13 | + | + | + |  | CCOc1nc([C@@H](CS(C)(=O)=O)n2c(=O)[nH]c3cc(-c4ccccc4C(F)(F)F)cnc32)ccc1OC [Ex. 85, (S)-3-(1-(6-ethoxy-5-methoxypyridin-2-yl)-2-(methylsulfonyl)ethyl)-6-(2-(trifluoromethyl)phenyl)-1H-imidazo[4,5-b]pyridin-2(3H)-one] |  |  | 
14 |  |  |  | 2.8 | CCOc1nc([C@@H](CS(C)(=O)=O)n2c(=O)[nH]c3c(C)c(-c4ccccc4CC)cnc32)ccc1OC [Ex. 10, (S)-3-(1-(6-ethoxy-5-methoxypyridin-2-yl)-2-(methylsulfonyl)ethyl)-6-(2-ethylphenyl)-7-methyl-1H-imidazo[4,5-b]pyridin-2(3H)-one] | significantly enhanced inhibitory activity | significantly enhanced inhibitory activity | significantly enhanced inhibitory activity
15 | + | + | + |  | CCOc1nc([C@@H](CS(C)(=O)=O)N2C(=O)c3csc(NC(=O)CN(CC)CC)c3C2=O)ccc1OC [Ex. 229, (S)-2-(diethylamino)-N-(5-(1-(6-ethoxy-5-methoxypyridin-2-yl)-2-(methylsulfonyl)ethyl)-4,6-dioxo-5,6-dihydro-4H-thieno[3,4-c]pyrrol-1-yl)acetamide] |  |  | 
16 | + | + | + |  | CCOc1nc([C@@H](CS(C)(=O)=O)n2c(=O)[nH]c3c(C)c(-c4ccc(F)cc4OC)cnc32)ccc1OC [Ex. 45, (S)-6-(4-fluoro-2-methoxyphenyl)-3-(1-(6-ethoxy-5-methoxypyridin-2-yl)-2-(methylsulfonyl)ethyl)-7-methyl-1H-imidazo[4,5-b]pyridin-2(3H)-one] |  |  | 
17 | − | − | − |  | CCOc1nc([C@@H](CS(C)(=O)=O)n2c(=O)n(CCS(C)(=O)=O)c3cc(Br)ccc32)ccc1OC [Ex. 210, (S)-5-bromo-1-(1-(6-ethoxy-5-methoxypyridin-2-yl)-2-(methylsulfonyl)ethyl)-3-(2-(methylsulfonyl)ethyl)-1H-benzo[d]imidazol-2(3H)-one] |  |  | 
18 | − | − | − |  | CCOc1nc([C@H](CS(C)(=O)=O)N2C(=O)c3csc(NC(C)=O)c3C2=O)ccc1OC [Ex. 225, (R)—N-(5-(1-(6-ethoxy-5-methoxypyridin-2-yl)-2-(methylsulfonyl)ethyl)-4,6-dioxo-5,6-dihydro-4H-thieno[3,4-c]pyrrol-1-yl)acetamide] |  |  | 
19 | + | + | + |  | CCOc1nc([C@@H](CS(C)(=O)=O)n2c(=O)n(C)c3cc(-c4ccc(F)cc4F)cnc32)ccc1OC [Ex. 95, (S)-6-(2,4-difluorophenyl)-3-(1-(6-ethoxy-5-methoxypyridin-2-yl)-2-(methylsulfonyl)ethyl)-1-methyl-1H-imidazo[4,5-b]pyridin-2(3H)-one] |  |  | 
20 | − | − | − |  | CCOc1nc([C@H](CS(C)(=O)=O)n2c(=O)n(CC)c3c(C)c(-c4ccc(F)cc4)cnc32)ccc1OC [Ex. 49, (R)-3-(1-(6-ethoxy-5-methoxypyridin-2-yl)-2-(methylsulfonyl)ethyl)-1-ethyl-6-(4-fluorophenyl)-7-methyl-1H-imidazo[4,5-b]pyridin-2(3H)-one] |  |  | 
21 | + | + | + |  | CCOc1nc([C@@H](CS(C)(=O)=O)n2c(=O)[nH]c3c(C)c(-c4ccc(F)cc4F)cnc32)ccc1OC [Ex. 28, (S)-6-(2,4-difluorophenyl)-3-(1-(6-ethoxy-5-methoxypyridin-2-yl)-2-(methylsulfonyl)ethyl)-7-methyl-1H-imidazo[4,5-b]pyridin-2(3H)-one] |  |  | 
22 | + | + | + |  | CCOc1nc([C@@H](CS(C)(=O)=O)n2c(=O)[nH]c3cc(-c4cc(C)ccc4C)ccc32)ccc1OC [Ex. 164, (S)-5-(2,5-dimethylphenyl)-1-(1-(6-ethoxy-5-methoxypyridin-2-yl)-2-(methylsulfonyl)ethyl)-1H-benzo[d]imidazol-2(3H)-one] |  |  | 
